Measured values reported in paper PMC7067850, “Identification of highly potent and selective inhibitor, TIPTP, of the p22phox-Rubicon axis as a therapeutic agent for rheumatoid arthritis” (Scientific Reports, 2020).

Molecular target: T1, p22phox–Rubicon interaction (Homo sapiens, UniProt P13498)
T1 construct: The plasmid encoding full-length of the p22phox (V5-p22phox) and Rubicon (Flag-Rubicon) were previously described; expressed in transfected cells; host or cells: HEK293T (293T) cells, transient co-transfection
T1 sequence (P13498 1-195): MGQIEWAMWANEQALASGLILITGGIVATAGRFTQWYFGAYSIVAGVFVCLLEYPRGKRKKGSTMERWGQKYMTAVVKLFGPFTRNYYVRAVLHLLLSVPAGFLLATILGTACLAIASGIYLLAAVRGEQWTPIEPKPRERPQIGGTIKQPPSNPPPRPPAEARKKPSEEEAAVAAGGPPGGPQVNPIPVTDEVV
Assay: p22phox–Rubicon interaction, co-IP in 293T cells co-transfected with V5-p22phox and Flag-Rubicon
Type: cell-based
Conditions: inhibition of p22phox–Rubicon interaction, compounds 0.01-20 μM for 24 h (Supplemental Fig. 5a)
Description: Immunoblot and immunoprecipitation assays were performed as described previously[18],[23]. For immunoprecipitation, cells were harvested and then lysed in NP-40 buffer supplemented with a complete protease inhibitor cocktail (Roche). After pre-clearing with protein A/G agarose beads (GE Healthcare Life Science) for 1 h at 4 °C, whole-cell lysates were used for immunoprecipitation with the indicated antibodies. Generally, 1–4 μg of commercial antibody was added to 1 ml of cell lysates and incubated at 4 °C for 8 to 12 h. After the addition of protein A/G agarose beads for 6 h, immunoprecipitants were extensively washed with lysis buffer and eluted with SDS loading buffer by boiling for 5 min.
For immunoblotting, polypeptides were resolved by SDS-polyacrylamide gel electrophoresis and transferred to a PVDF membrane (Bio-Rad). […] Antibody binding was visualized by chemiluminescence (ECL; Millipore) and detected by a Vilber chemiluminescence analyzer (Fusion SL 3; Vilber Lourmat).
(a) 293T cells were co-transfected with V5-p22phox and Flag-Rubicon. 12 h post transfection, cells were treated with compound 1 or 2 (0.01, 0.1, 1, 5, 10, 20 μM) for 24 h, and subjected to IP with αFlag, followed by IB with αV5. WCLs were used for IB with αFlag, αV5, or αActin. […]

## C[C@@H](Oc1cccc(-n2cc3c(n2)CCCC3)c1)C(=O)Nc1nnc(C(F)(F)F)s1 [TIPTP, (R)-2-(3-(4,5,6,7-tetrahydro-2H-indazol-2-yl)phenoxy)-N-(5-(trifluoromethyl)-1,3,4-thiadiazol-2-yl)propanamide]
  IC50: 100 nM
